Reference: patent publication US8889679B2, “Glutaraldehyde based biocidal compositions and methods of use” (Dow Global Technologies LLC, priority 2009, dated 2014)

How the values were obtained:
[1] = system: oil field isolated anaerobic SRB consortium; assay: Biocidal efficacy against anaerobic bacteria for high temperature and sulfide-rich conditions: lowest concentration for 99.9% bacterial reduction in 2 hours; assay type: cell-based, anaerobic sulfate-reducing bacteria (SRB); conditions: 80° C., 10 ppm sulfide ion; for Dosage required for 99.9% bacterial kill in 2 h (active ppm) Glutaraldehyde: glutaraldehyde concentration alone or in combination
Method: (§1) The synergy indexes reported in the following examples are calculated using the following equation: Synergy Index=Ca/CA+Cb/CB
(§2) where Ca: Concentration of biocide A required to achieve a certain level or complete bacterial kill when used in combination;
(§3) CA: Concentration of biocide A required to achieve a certain level or complete bacterial kill when used alone;
(§4) Cb: Concentration of biocide B required to achieve a certain level or complete bacterial kill when used in combination; and
(§5) CB: Concentration of biocide B required to achieve a certain level or complete bacterial kill when used alone.
(§6) A synergy index (SI) of 1 indicates additivity, a synergy index of less than 1 indicates synergy, and a synergy index greater than 1 indicates antagonism.
(§7) Various methods known to those skilled in the art can be used for evaluating biocidal efficacy. In the examples below, aliquots of the biocide-treated samples are removed at predetermined time points and the biocide concentration required to achieve a certain level or complete bacterial kill is determined by culture-based methods including serial dilution. In some examples, the method is based or adapted (e.g., for high temperature testing or for the presence of sulfide) from the methodology described in international patent publication WO 2009/039004, which is incorporated herein by reference.
Inside an anaerobic chamber, biocide solutions (single or in combination) are prepared at various concentrations in a salt solution (3.1183 g of NaCl, 1.3082 mg of NaHCO3, 47.70 mg of KCl, 72.00 mg of CaCl2, 54.49 mg of MgSO4, 172.28 mg of Na2SO4, 43.92 mg of Na2CO3 in 1 L water). The biocide solutions are challenged with 10^4 to 10^5 CFU/mL of an oil field isolated anaerobic SRB consortium and 10 ppm sulfide ion. The mixtures are incubated at 80° C. under anaerobic conditions for 2 hours after which the biocidal efficacy against the field SRB consortium is evaluated. The biocidal efficacy is determined by selecting the lowest biocide concentration required to achieve at least a 99.9% bacterial reduction in 2 hours. Synergy index is then calculated.

[2] = system: oil field isolated anaerobic SRB consortium; assay: Biocidal efficacy against anaerobic bacteria: minimum biocide concentration for complete bacteria kill (MBC), 40° C., 24 hour; assay type: cell-based, anaerobic sulfate-reducing bacteria (SRB); conditions: for MBC (active ppm) Glutaraldehyde: glutaraldehyde concentration alone or in combination
Method: as §1, §2, §3, §4, §5, §6, §7
Inside an anaerobic chamber, a deaerated sterile salt solution (3.1183 g of NaCl, 1.3082 mg of NaHCO3, 47.70 mg of KCl, 72.00 mg of CaCl2, 54.49 mg of MgSO4, 172.28 mg of Na2SO4, 43.92 mg of Na2CO3 in 1 L water) is contaminated with an oil field isolated anaerobic SRB consortium at final bacterial concentrations of 10^5-10^6 CFU/mL. Aliquots of this contaminated water are then treated with biocide solution (single or in combination) at various concentrations.

[3] = glutaraldehyde/CTAC series, CTAC concentration alone or in combination
[4] = glutaraldehyde/HHT series, HHT concentration alone or in combination
[5] = glutaraldehyde/tris nitro series
[6] = glutaraldehyde/tris nitro series, tris nitro concentration alone or in combination

Structure (SMILES): ClC=CC[N+]12CN3CN(CN(C3)C1)C2 [CTAC, 1-(3-chloroallyl)-3,5,7-triaza-1-azoniaadamantane]
- Dosage required for 99.9% bacterial kill in 2 h (active ppm) CTAC [1, 3]: 375.0 active ppm
- MBC (active ppm) CTAC [2, 3]: 133.3 active ppm

Structure (SMILES): OCCN1CN(CCO)CN(CCO)C1 [HHT, hexahydro-1,3,5-tris(2-hydroxyethyl)-s-triazine]
- Dosage required for 99.9% bacterial kill in 2 h (active ppm) HHT [1, 4]: 125.0 active ppm
- MBC (active ppm) HHT [2, 4]: 133.3 active ppm

Structure (SMILES): O=CCCCC=O [glutaraldehyde]
- Dosage required for 99.9% bacterial kill in 2 h (active ppm) Glutaraldehyde ([1]; glutaraldehyde/CTAC series): 8.7 active ppm
- Dosage required for 99.9% bacterial kill in 2 h (active ppm) Glutaraldehyde ([1]; glutaraldehyde/HHT series): 15.6 active ppm
- Dosage required for 99.9% bacterial kill in 2 h (active ppm) Glutaraldehyde [1, 5]: 22.5 active ppm
- MBC (active ppm) Glutaraldehyde ([2]; glutaraldehyde/CTAC series): 5.3 active ppm
- MBC (active ppm) Glutaraldehyde ([2]; glutaraldehyde/HHT series): 4.0 active ppm
- MBC (active ppm) Glutaraldehyde [2, 5]: 4.0 active ppm

Structure (SMILES): O=[N+]([O-])C(CO)(CO)CO [tris nitro, tris(hydroxymethyl)nitromethane]
- Dosage required for 99.9% bacterial kill in 2 h (active ppm) Tris Nitro [1, 6]: 180.0 active ppm
- MBC (active ppm) Tris Nitro [2, 6]: 44.4 active ppm
